According to patent US10336762B2 (priority 2017, dated 2019):
Where two headings read alike, the source gives them in different places.

Assays:
[1] = tested on: TNFα; experiment: cells; format: cell-based, human; conditions: LPS-stimulated human monocytes, read-out: EC50 TNF
[2] = molecular target: IRAK4 enzyme (Homo sapiens (Human), UniProt Q9NWZ3); experiment: biochemical; format: biochemical; conditions: IRAK4 enzyme, 500 μM ATP
[3] = Homo sapiens, Monocyte, TNFα by TR-FRET
[4] = Homo sapiens, Monocyte, TNFα content

IRAK4 enzyme, sequence (Q9NWZ3 whole entry): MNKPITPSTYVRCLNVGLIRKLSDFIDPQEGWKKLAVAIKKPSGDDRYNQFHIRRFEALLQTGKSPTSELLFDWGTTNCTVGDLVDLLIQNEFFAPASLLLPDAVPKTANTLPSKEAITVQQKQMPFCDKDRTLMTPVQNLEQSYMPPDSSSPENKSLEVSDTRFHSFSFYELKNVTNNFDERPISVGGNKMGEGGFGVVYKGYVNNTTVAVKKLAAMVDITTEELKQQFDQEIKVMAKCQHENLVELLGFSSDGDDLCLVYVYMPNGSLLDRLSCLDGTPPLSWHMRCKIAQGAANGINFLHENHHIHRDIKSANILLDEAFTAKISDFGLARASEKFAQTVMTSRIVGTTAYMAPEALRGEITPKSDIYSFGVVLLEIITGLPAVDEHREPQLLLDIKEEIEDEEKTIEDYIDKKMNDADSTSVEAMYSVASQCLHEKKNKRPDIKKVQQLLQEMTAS

COc1cnc(Nc2cc(-c3ccc4cc(C#N)cnn34)ncc2C(=O)NC[C@@H](F)C(C)(C)O)cn1 [Example 840, (R)-6-(3-cyanopyrrolo[1,2-b]pyridazin-7-yl)-N-(2-fluoro-3-hydroxy-3-methylbutyl)-4-((5-methoxypyrazin-2-yl)amino)nicotinamide]
EC50 [1, 3]: 17 nM
IC50 ([2]; TR-FRET): < 1 nM

COC(=O)NCC1(O)CC(Nc2cc(-c3ccc4cc(C#N)cnn34)ncc2C(=O)NC[C@@H](F)C(C)(C)O)C1 (single isomer, unassigned) [Example 760]
EC50 ([1]; TNFα content): 33 nM
IC50 ([2]; TR-FRET (HTRF)): < 1 nM

COC(=O)NCCCCNc1cc(-c2ccc3cc(C#N)cnn23)ncc1C(=O)NC[C@@H](F)C(C)(C)O [Example 717, (R)-methyl (4-((2-(3-cyano-pyrrolo[1,2-b]pyridazin-7-yl)-5-((2-fluoro-3-hydroxy-3-methylbutyl)carbamoyl)pyridin-4-yl)amino)butyl) carbamate]
EC50 [1, 4]: 66 nM
IC50 ([2]; TR-FRET (HTRF)): < 1 nM

CNC(=O)O[C@H]1C[C@H](Nc2cc(-c3ccc4cc(C#N)cnn34)ncc2C(=O)NC[C@@H](F)C(C)(C)O)C1 [Example 162, (1R,3r)-3-((2-(3-cyano-pyrrolo[1,2-b]pyridazin-7-yl)-5-(((R)-2-fluoro-3-hydroxy-3-methylbutyl)carbamoyl)pyridin-4-yl)amino)cyclobutyl methylcarbamate]
EC50 [1, 4]: > 10000 nM
IC50 ([2]; TR-FRET): 376 nM

CC(C)(O)[C@H](F)CNC(=O)c1cnc(-c2ccc3cc(C#N)cnn23)cc1NC1Cc2ccncc2C1 (single isomer, unassigned) [Example 676]
EC50 [1, 4]: 81 nM
IC50 ([2]; TR-FRET (HTRF)): 1 nM

CC(C)(O)[C@H](F)CNC(=O)c1cnc(-c2ccc3cc(C#N)cnn23)cc1Nc1ccc(-n2ccnn2)cc1 [Example 180, (R)-4-((4-(1H-1,2,3-triazol-1-yl)phenyl)amino)-6-(3-cyanopyrrolo[1,2-b]pyridazin-7-yl)-N-(2-fluoro-3-hydroxy-3-methylbutyl)nicotinamide]
EC50 [1, 4]: 34 nM
IC50 ([2]; TR-FRET): < 1 nM

CC(C)(O)C(=O)CNC(=O)c1cnc(-c2ccc3cc(C#N)cnn23)cc1NC12CCC(O)(CC1)CC2 [Example 810, 6-(3-cyanopyrrolo[1,2-b]pyridazin-7-yl)-N-(3-hydroxy-3-methyl-2-oxobutyl)-4-((4-hydroxy-bicyclo[2.2.2]octan-1-yl)amino)nicotinamide]
EC50 [1, 3]: 9 nM
IC50 ([2]; TR-FRET): < 1 nM

N#Cc1cnn2c(-c3cc(NC45CCC(O)(CC4)CC5)c(C(=O)N[C@H]4CNC4=O)cn3)ccc2c1 [Example 955, (S)-6-(3-cyanopyrrolo[1,2-b]pyridazin-7-yl)-4-((4-hydroxybicyclo[2.2.2]octan-1-yl)amino)-N-(2-oxo-azetidin-3-yl)nicotinamide]
EC50 [1, 3]: 399 nM
IC50 ([2]; TR-FRET): < 1 nM

CC(C)(O)[C@H](F)CNC(=O)c1cnc(-c2ccc3cc(C#N)cnn23)cc1Nc1ccc(-c2ncc[nH]2)cc1 [Example 230, (R)-4-((4-(1H-imidazol-2-yl)phenyl)amino)-6-(3-cyanopyrrolo[1,2-b]pyridazin-7-yl)-N-(2-fluoro-3-hydroxy-3-methylbutyl)nicotinamide]
EC50 [1, 4]: 58 nM
IC50 ([2]; TR-FRET): < 1 nM

N#Cc1cnn2c(-c3cc(N[C@H]4CCC[C@@H](O)C4)c(C(=O)NC4CC4)cn3)ccc2c1 [Example 514, 6-(3-cyanopyrrolo[1,2-b]pyridazin-7-yl)-N-cyclopropyl-4-(((1S,3R)-3-hydroxy-cyclohexyl)amino) nicotinamide]
EC50 [1, 4]: 213 nM
IC50 ([2]; TR-FRET (HTRF)): 9 nM

COC(=O)N1CC[C@@H](Nc2cc(-c3ccc4cc(C#N)cnn34)ncc2C(=O)NC[C@@H](F)C(C)(C)O)C1 [Example 752, (R)-methyl 3-((2-(3-cyano-pyrrolo[1,2-b]pyridazin-7-yl)-5-(((R)-2-fluoro-3-hydroxy-3-methylbutyl)carbamoyl)pyridin-4-yl)amino)pyrrolidine-1-carboxylate]
EC50 [1, 4]: 80 nM
IC50 ([2]; TR-FRET (HTRF)): < 1 nM

CC(N)(CCNc1cc(-c2ccc3cc(C#N)cnn23)ncc1C(=O)NC[C@@H](F)C(C)(C)O)C(F)F (stereo partly drawn) [Example 559, 4-((3-amino-4,4-difluoro-3-methylbutyl)amino)-6-(3-cyanopyrrolo[1,2-b]pyridazin-7-yl)-N-((R)-2-fluoro-3-hydroxy-3-methylbutyl)nicotinamide]
EC50 [1, 4]: 78 nM
IC50 ([2]; TR-FRET (HTRF)): 1 nM

CNC(=O)CNC(=O)c1cnc(-c2ccc3cc(C#N)cnn23)cc1NC12CCC(O)(CC1)CC2 [Example 334, 6-(3-cyanopyrrolo[1,2-b]pyridazin-7-yl)-4-((4-hydroxybicyclo[2.2.2]octan-1-yl)amino)-N-(2-(methylamino)-2-oxoethyl)nicotinamide]
EC50 [1, 4]: 292 nM
IC50 ([2]; TR-FRET): < 1 nM

CC(C)(O)[C@H](F)CNC(=O)c1cnc(-c2ccc3cc(C#N)cnn23)cc1Nc1ccc2c(C#N)c[nH]c2c1 [Example 571, (R)-4-((3-cyano-1H-indol-6-yl)amino)-6-(3-cyano-pyrrolo[1,2-b]pyridazin-7-yl)-N-(2-fluoro-3-hydroxy-3-methylbutyl)nicotinamide]
EC50 [1, 4]: 12 nM
IC50 ([2]; TR-FRET (HTRF)): < 1 nM

CC(C)(O)[C@H](F)CNC(=O)c1cnc(-c2ccc3cc(C#N)cnn23)cc1N[C@H]1CC[C@H](OC(=O)NC2CC2)CC1 [Example 163, (1R,4r)-4-((2-(3-cyano-pyrrolo[1,2-b]pyridazin-7-yl)-5-(((R)-2-fluoro-3-hydroxy-3-methylbutyl)carbamoyl)pyridin-4-yl)amino)cyclohexyl cyclopropylcarbamate]
EC50 [1, 4]: > 10000 nM
IC50 ([2]; TR-FRET): 90 nM

CC(C)(C)NC(=O)CNC(=O)c1cnc(-c2ccc3cc(C#N)cnn23)cc1NC12CCC(O)(CC1)CC2 [Example 813, N-(2-(tert-butylamino)-2-oxoethyl)-6-(3-cyano-pyrrolo[1,2-b]pyridazin-7-yl)-4-((4-hydroxy-bicyclo[2.2.2]octan-1-yl)amino)nicotinamide]
EC50 [1, 3]: 92 nM
IC50 ([2]; TR-FRET): < 1 nM

CC(=O)N[C@H]1C[C@H](Nc2cc(-c3ccc4cc(C#N)cnn34)ncc2C(=O)NC[C@@H](F)C(C)(C)O)C1 [Example 456, 4-(((1r,3R)-3-acetamidocyclobutyl)amino)-6-(3-cyanopyrrolo[1,2-b]pyridazin-7-yl)-N-((R)-2-fluoro-3-hydroxy-3-methylbutyl)nicotinamide]
EC50 [1, 4]: 394 nM
IC50 ([2]; TR-FRET (HTRF)): 1 nM

CC(C)Nc1cc(-c2ccc3cc(C#N)cnn23)ncc1C(=O)NCC#N [Example 462, N-(cyanomethyl)-6-(3-cyanopyrrolo[1,2-b]pyridazin-7-yl)-4-(isopropylamino) nicotinamide]
EC50 [1, 4]: 67 nM
IC50 ([2]; TR-FRET (HTRF)): < 1 nM

CC(C)(O)[C@H](F)CNC(=O)c1cnc(-c2ccc3cc(C#N)cnn23)cc1Nc1ccc(C(=O)N2CCC2)cc1 [Example 349, (R)-4-((4-(azetidine-1-carbonyl)phenyl)amino)-6-(3-cyanopyrrolo[1,2-b]pyridazin-7-yl)-N-(2-fluoro-3-hydroxy-3-methylbutyl)nicotinamide]
EC50 [1, 4]: 77 nM
IC50 ([2]; TR-FRET): 1 nM

CC(C)(O)[C@H](F)CNC(=O)c1cnc(-c2ccc3cc(C#N)cnn23)cc1Nc1cccc(C#N)c1 [Example 141, (R)-4-((3-cyanophenyl)amino)-6-(3-cyano-pyrrolo[1,2-b]pyridazin-7-yl)-N-(2-fluoro-3-hydroxy-3-methylbutyl)nicotinamide]
EC50 [1, 4]: 70 nM
IC50 ([2]; TR-FRET): < 1 nM

C=CC(=O)N[C@H]1CC[C@H](Nc2cc(-c3ccc4cc(C#N)cnn34)ncc2C(=O)NC[C@@H](F)C(C)(C)O)CC1 [Example 425, 4-(((1r,4R)-4-acrylamidocyclohexyl)amino)-6-(3-cyano-pyrrolo[1,2-b]pyridazin-7-yl)-N-((R)-2-fluoro-3-hydroxy-3-methylbutyl) nicotinamide]
EC50 [1, 4]: 120 nM
IC50 ([2]; TR-FRET (HTRF)): 2 nM

COC(=O)N1CC[C@H](Nc2cc(-c3ccc4cc(C#N)cnn34)ncc2C(=O)NC[C@@H](F)C(C)(C)O)C1 [Example 751, (S)-methyl 3-((2-(3-cyano-pyrrolo[1,2-b]pyridazin-7-yl)-5-(((R)-2-fluoro-3-hydroxy-3-methylbutyl)carbamoyl)pyridin-4-yl)amino)pyrrolidine-1-carboxylate]
EC50 [1, 4]: 333 nM
IC50 ([2]; TR-FRET (HTRF)): 4 nM

CC1(C)C(=O)Nc2cc(Nc3cc(-c4ccc5cc(C#N)cnn45)ncc3C(=O)NC[C@@H](F)C(C)(C)O)ccc21 [Example 565, (R)-6-(3-cyanopyrrolo[1,2-b]pyridazin-7-yl)-4-((3,3-dimethyl-2-oxoindolin-6-yl)amino)-N-(2-fluoro-3-hydroxy-3-methylbutyl) nicotinamide]
EC50 [1, 4]: 23 nM
IC50 ([2]; TR-FRET (HTRF)): < 1 nM

COC(=O)C1CC2(CC(NC(=O)c3cnc(-c4ccc5cc(C#N)cnn45)cc3NC(C)C)C2)C1 (stereo not drawn) [Example 60, methyl 6-(6-(3-cyano-pyrrolo[1,2-b]pyridazin-7-yl)-4-(isopropylamino)nicotinamido) spiro[3.3]heptane-2-carboxylate]
EC50 [1, 4]: 512 nM
IC50 ([2]; TR-FRET): 1 nM

COC(=O)NC[C@H]1C[C@H](Nc2cc(-c3ccc4cc(C#N)cnn34)ncc2C(=O)NC2CCC(NC(=O)C3CC3)CC2)C1 (stereo partly drawn) [Example 830, methyl (((1R,3r)-3-((2-(3-cyanopyrrolo[1,2-b]pyridazin-7-yl)-5-(((1r,4R)-4-(cyclopropanecarboxamido)cyclohexyl)carbamoyl)pyridin-4-yl)amino)cyclobutyl)methyl)carbamate]
EC50 [1, 3]: 23 nM
IC50 ([2]; TR-FRET): < 1 nM

Cc1nnc(-c2ccc(Nc3cc(-c4ccc5cc(C#N)cnn45)ncc3C(=O)NC[C@@H](F)C(C)(C)O)cc2)o1 [Example 209, (R)-6-(3-cyanopyrrolo[1,2-b]pyridazin-7-yl)-N-(2-fluoro-3-hydroxy-3-methylbutyl)-4-((4-(5-methyl-1,3,4-oxadiazol-2-yl)phenyl)amino) nicotinamide]
EC50 [1, 4]: 84 nM
IC50 ([2]; TR-FRET): < 1 nM

N#Cc1cnn2c(-c3cc(Nc4cccnc4)c(C(=O)N[C@H]4CC[C@H](NC(=O)C5CC5)CC4)cn3)ccc2c1 [Example 502, 6-(3-cyanopyrrolo[1,2-b]pyridazin-7-yl)-N-((1r,4r)-4-(cyclopropane-carboxamido)cyclohexyl)-4-(pyridin-3-ylamino) nicotinamide]
EC50 [1, 4]: 93 nM
IC50 ([2]; TR-FRET (HTRF)): 1 nM
